Experiment [1] relates to Chromobacterium violaceum mutant CV026. The experiment in a line: Violacein inhibition assay (qualitative), agar well. In kind it is cell-based. The following applies: QS signal molecule 12.5 μM, 30° C., 24 hours, FIG. 5. The method, then: This assay has been designed in such a way that a zone inhibition of Violacein synthesis can be seen around the agar well containing the probable QS Inhibitor. Chromobacterium violaceum mutant CV026 is used as the test organism which has the ability to respond to a variety of signal molecules. The QS signal molecule (12.5 μM) is added to 10 ml of Luria bertani soft agar containing 100 μl of overnight culture of CV026. The soft agar is then overlayed onto basal LA plate, and a 4 mm diameter well is dug in the centre of the plate using a sterile cork borer after the overlay is set. To the agar well 75 μl of appropriate concentration of the compound under investigation was added, and the plates were incubated at 30° C. for 24 hours. The diameter of zone of Violacein inhibition was then measured. Pure xylitol from sigma was used for comparative analysis.

Experiment [2] deals with Chromobacterium violaceum CV026. The experiment in a line: Violacein inhibition assay (quantitative), tube assay. It counts as cell-based. The method, then:
This assay is based on a similar principle to the one described above, that is the presence of any quorum sensing inhibitor will quantitatively decrease the production of the purple pigment violacein which can then be estimated colorimetrically. This is a tube assay in which 100 μl of overnight culture of CV026 was inoculated in 10 ml LB broth containing the QS signal molecule (namely C6-HSL, C8-HSL or 3-oxo-C6-HSL) at appropriate concentrations. The test compound, Pichia sp. synthesized xylitol in the present invention, was then added at increasing concentrations in a series of test tubes. The violacein produced was extracted from the culture broth by dissolution of the pigment in DMSO and separating it from the cell mass by centrifugation. The amount of xylitol required to inhibit or substantially decrease the purple pigment production could be quantitatively estimated by measuring the optical density at 570 nm. Appropriate positive and negative controls were used. All experiments were done in triplicates for checking reproducibility.

[3] abbreviates: increasing concentration of xylitol, CV026.

This is an account of results in US20150159180A1, “PROCESS FOR PRODUCTION OF C[…] USING PICHIA CARIBBICA AND ITS APPLICATION FOR QUORUM SENSING INHIBITION” (COUNCIL OF SCIENTIFIC & INDUSTRIAL RESEARCH, priority 2012, published 2015).

In the case of `OC[C@@H](O)[C@H](O)[C@@H](O)CO` [Pichia xylitol, xylitol], the “zone of inhibition of Violacein synthesis” value in experiment [1] is on record as “zone of inhibition of Violacein synthesis around the agar well”. Further, the “antagonism of AHL signal and receptor interaction” value in experiment [2] (CV026 based AHL antagonism assay, C6-HSL, C8-HSL and 3-oxo-C6-HSL) is “able to antagonize not one but three different AHL signal and receptor interaction”. Besides, in experiment [2] (setting [3]), the “inhibitory effect on the organism” value is “not inhibitory to the organism” and the “quorum sensing signal reception” value was “severely impaired quorum sensing signal reception”. For the same compound, the “inhibition of Violacein production” value in experiment [2] (increasing concentrations of xylitol, optical density at 570 nm, FIG. 6) is reported as “could quantitatively inhibit Violacein production”.
